≈ marks a conversion by molar mass, not a printed value. Where a SMILES comes first, the peptide text is derived from it. Bridges are numbered along the chain shown (N, C = ends). Roman numbers before positions name the chains, in order. [ ]: non-standard residue; d: D form. Thr(ol) = C[C@@H](O)[C@H](N)CO; Tle = CC(C)(C)[C@H](N)C(=O)O; Hiv = CC(C)[C@H](O)C(=O)O; dDab = NCC[C@@H](N)C(=O)O; hSer = N[C@@H](CCO)C(=O)O; Dab = NCC[C@H](N)C(=O)O; Dap = NC[C@H](N)C(=O)O
What was measured:
Type in all cases: cell-based
[1] = system: Acinetobacter baumannii 872842; conditions: 872842
In short: (§1)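 Cation-adjusted MH-II broth, 0.002% polysorbate 80, inoculum near 10^6 CFU/mL. MIC read visually after 18-20 h, 35° C; units μg/mL.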

[2] = system: Acinetobacter baumannii DSM 30008; conditions: DSM 30008
In short: as §1

[3] = system: Enterobacter cloacae 848840; conditions: 848840
In short: as §1

Escherichia coli 926415 = conditions: 926415
In short: as §1

[4] = system: Escherichia coli ATCC 25922; conditions: ATCC 25922
In short: as §1

[5] = system: Klebsiella pneumoniae 968733; conditions: 968733
In short: as §1

[6] = system: Klebsiella pneumoniae SSI #3010; conditions: SSI #3010
In short: as §1

[7] = system: Pseudomonas aeruginosa ATCC 27853; conditions: ATCC 27853
In short: as §1

[8] = system: human red blood cells (hRBC); assay: Hemolysis; conditions: red cells of human, 1 h, 200
In short: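 Read-out is supernatant absorbance at 540 nm, normalised to full lysis by 2% Triton X-100 and zero lysis by PBS with 10% water. Peptides (200 μg/mL) were exposed to 20% v/v washed human erythrocytes at 37° C for 1 h under shaking.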

Compound	MIC [1] [µg/mL]	MIC [2] [µg/mL]	MIC [3] [µg/mL]	MIC (Escherichia coli 926415) [µg/mL]	MIC [4] [µg/mL]	MIC [5] [µg/mL]	MIC [6] [µg/mL]	MIC [7] [µg/mL]	Hemolysis at 200 μg/mL [8] [%]
CC(C)C[C@@H]1NC(=O)[C@@H](CC(C)C)NC(=O)[C@H](CCN)NC(=O)[C@@H](NC(=O)[C@H](CCN)NC(=O)[C@@H](NC(=O)[C@H](CCN)NC(=O)CC[C@@H]2NC(=O)[C@H](CCN)NC(=O)[C@H](C(C)C)NC(=O)[C@@H](NC(=O)[C@@H](O)C(C)C)CSSC[C@@H](C(=O)N[C@H](CO)[C@@H](C)O)NC(=O)[C@H](Cc3ccc(O)cc3)NC(=O)[C@H](CO)NC(=O)[C@H](Cc3c[nH]c4ccccc34)NC(=O)[C@H](CCO)NC(=O)[C@@H](CCN)NC2=O)[C@@H](C)O)CCNC(=O)[C@H]([C@@H](C)O)NC(=O)[C@H](CCN)NC(=O)[C@H](CCN)NC1=O [Ex. 89] (I: H-[Hiv]CV[Dab]E[dDab][hSer]WSYC[Thr(ol)] / II: [Dab]T[Dab][Dab][Dab][dL]L[Dab][Dab]T; disulfide I:2-I:11; amide I:5-II:N; lactam II:4-II:C)	0.5 (≈ 0.209 µM)	0.0625 (≈ 0.0262 µM)	0.5 (≈ 0.209 µM)	0.5 (≈ 0.209 µM)	0.125 (≈ 0.0524 µM)	1 (≈ 0.419 µM)	0.125 (≈ 0.0524 µM)	0.25 (≈ 0.105 µM)	<1
CC(C)C[C@@H]1NC(=O)[C@@H](CC(C)C)NC(=O)[C@H](CCN)NC(=O)[C@@H](NC(=O)[C@H](CCN)NC(=O)[C@@H](NC(=O)[C@H](CCN)NC(=O)CC[C@@H]2NC(=O)[C@H](CN)NC(=O)[C@H](Cc3ccc(O)cc3)NC(=O)[C@@H](NC(=O)[C@@H](O)C(C)C)CSSC[C@@H](C(=O)N[C@H](CO)[C@@H](C)O)NC(=O)[C@H](C(C)(C)C)NC(=O)[C@H](CCC(=O)O)NC(=O)[C@H](Cc3c[nH]c4ccccc34)NC(=O)[C@H]([C@@H](C)O)NC(=O)[C@@H](CCN)NC2=O)[C@@H](C)O)CCNC(=O)[C@H]([C@@H](C)O)NC(=O)[C@H](CCN)NC(=O)[C@H](CCN)NC1=O [Ex. 90] (I: H-[Hiv]CY[Dap]E[dDab]TWE[Tle]C[Thr(ol)] / II: [Dab]T[Dab][Dab][Dab][dL]L[Dab][Dab]T; disulfide I:2-I:11; amide I:5-II:N; lactam II:4-II:C)	0.125 (≈ 0.0515 µM)	0.125 (≈ 0.0515 µM)	0.25 (≈ 0.103 µM)	0.5 (≈ 0.206 µM)	0.0625 (≈ 0.0257 µM)	0.25 (≈ 0.103 µM)	0.125 (≈ 0.0515 µM)	0.25 (≈ 0.103 µM)	<1
CC(C)C[C@@H]1NC(=O)[C@@H](CC(C)C)NC(=O)[C@H](CCN)NC(=O)[C@@H](NC(=O)[C@H](CCN)NC(=O)[C@@H](NC(=O)[C@H](CCN)NC(=O)CC[C@@H]2NC(=O)[C@H](CCC(=O)O)NC(=O)[C@H](Cc3ccc(O)cc3)NC(=O)[C@@H](NC(=O)[C@@H](O)C(C)C)CSSC[C@@H](C(=O)N[C@H](CO)[C@@H](C)O)NC(=O)[C@H](C(C)(C)C)NC(=O)[C@H](CN)NC(=O)[C@H](Cc3c[nH]c4ccccc34)NC(=O)[C@H]([C@@H](C)O)NC(=O)[C@@H](CCN)NC2=O)[C@@H](C)O)CCNC(=O)[C@H]([C@@H](C)O)NC(=O)[C@H](CCN)NC(=O)[C@H](CCN)NC1=O [Ex. 91] (I: H-[Hiv]CYEE[dDab]TW[Dap][Tle]C[Thr(ol)] / II: [Dab]T[Dab][Dab][Dab][dL]L[Dab][Dab]T; disulfide I:2-I:11; amide I:5-II:N; lactam II:4-II:C)	0.5 (≈ 0.206 µM)	0.125 (≈ 0.0515 µM)	1 (≈ 0.412 µM)	2 (≈ 0.823 µM)	0.0625 (≈ 0.0257 µM)	2 (≈ 0.823 µM)	0.25 (≈ 0.103 µM)	0.25 (≈ 0.103 µM)	<1

Source: patent US11629171B2, “Beta-hairpin peptidomimetics” (POLYPHOR AG, priority 2017, dated 2023)
